Assay results published in publication PMC11595424, “Heterocycles and a Sorbicillinoid from the Coral-Derived Fungus Penicillium chrysogenum” (Marine Drugs, 2024).

Assays:
Type in all cases: cell-based
[1] = tested on: L-02 (normal human hepatocytes); experiment: Cytotoxicity assay, SRB method, L-02; conditions: for IC50: Homo sapiens, L02, L-02 cells, SRB method
Experimental: (§1) The cytotoxic activity against the K562 (human leukemia) cell line was evaluated by MTT method, and the cytotoxic activities against L-02 (normal human hepatocytes), ASPC-1 (human pancreatic cancer), MDA-MB-231 (human breast cancer), NCI-H446, and NCI-H446/EP (human small cell lung cancer) cell lines were determined by SRB method. The difference between the two human small-cell lung cancer cell lines is that NCI-H446 is a sensitive cell line while the NCI-H446/EP cell line is resistant to cisplatin, etoposide, SN38, and doxorubicin. As a positive control, doxorubicin was used. […]
(§2) The cytotoxic activity against the K562 (human leukemia) cell line was evaluated by MTT method, and the cytotoxic activities against L-02 (normal human hepato-cytes), ASPC-1 (human pancreatic cancer), MDA-MB-231 (human breast cancer), NCI-H446 and NCI-H446/EP (human small cell lung cancer) cell lines were determined by SRB method.
(§3) Doxorubicin was used as a positive control.
(§4) In the cytotoxic assay, preliminary screening for cytotoxicity of compounds was performed at the concentration of 30 μM, then the compounds with inhibition rate greater than 60 % were rescreened for the IC 50 values. The blank control, vehicle control, positive control (doxorubicin) and compounds at five different concentrations (30, 15, 3.75, 1.875 and 0.9375 μM) were tested three times and the average OD values were taken to calculated IC50 values.
(§5) Table S11. Cytotoxic activities of 1−5
(§6) Compound c Inhibition rate (%) […]
(§7) a Doxorubicin was used as positive control. […]

[2] = tested on: MDA-MB-231 (human breast cancer); experiment: Cytotoxicity assay, SRB method, MDA-MB-231; conditions: for IC50: Homo sapiens, MDA-MB-231 cells, SRB method
Experimental: as §1, §2, §3, §4, §5, §6, §7

[3] = tested on: ASPC-1 (human pancreatic cancer); experiment: Cytotoxicity assay, SRB method, ASPC-1; conditions: for IC50: Homo sapiens, ASPC1, ASPC-1 cells, SRB method
Experimental: as §1, §2, §3, §4, §5, §6, §7

[4] = tested on: NCI-H446/EP (human small cell lung cancer) cell line; experiment: Cytotoxicity assay, SRB method, NCI-H446/EP; conditions: for IC50: Homo sapiens, NCI-H446/EP cells (resistant to cisplatin, etoposide, SN38, doxorubicin), SRB method
Experimental: as §1, §2, §3, §4, §5, §6, §7

[5] = tested on: NCI-H446 (human small cell lung cancer) cell line; experiment: Cytotoxicity assay, SRB method, NCI-H446; conditions: for IC50: Homo sapiens, NCI-H446 (sensitive) cells, SRB method; for Inhibition rate (%): Table S13, NCI-H446, IC50 rescreen
Experimental: as §1, §2, §3, §4, §5, §6, §7
Table S13. Cytotoxicity against NCI-H446 cell line of 5 c (μM) OD value Inhibition rate (%) IC 50 ( μM)

[6] = tested on: K562 (human leukemia) cell line; experiment: Cytotoxicity assay, MTT method, K562; conditions: for IC50: Homo sapiens, K562 cell line, MTT method; for Inhibition rate (%): Table S12, K562, IC50 rescreen
Experimental: as §1, §2, §3, §4, §5, §6
a Doxorubicin was used as positive control.
Table S12. Cytotoxicity against K562 cell line of 5

[7] = tested on: NCI-H446 (human small cell lung cancer) cell line; experiment: Cytotoxicity assay, SRB method, NCI-H446; conditions: Table S13, NCI-H446, IC50 rescreen, c 7.5 μM
[8] = tested on: K562 (human leukemia) cell line; experiment: Cytotoxicity assay, MTT method, K562; conditions: Table S12, K562, IC50 rescreen, c 7.5 μM
[9] = Table S11, preliminary screening, c 30 μM
[10] = Table S11, positive control, c 1 μM

SMILES	IC50 [1]	Inhibition rate (%) L-02 [1, 9]	IC50 [2]	Inhibition rate (%) MDA-MB-231 [2, 9]	IC50 [3]	Inhibition rate (%) ASPC-1 [3, 9]	IC50 [4]	Inhibition rate (%) NCI-H446/EP [4, 9]	IC50 [5]	Inhibition rate (%) NCI-H446 [5, 9]	IC50 [6]	Inhibition rate (%) K562 [6, 9]	further results
Cc1cc(O)c(CC[C@@H](C)C(=O)O)c2scnc12 [Compound 3a, Chrysobenzothiazole A]	> 30 µM	10.94%	> 30 µM	0.40%	> 30 µM	18.16%	> 30 µM	11.04%	> 30 µM	1.04%	> 30 µM	20.39%	
COc1cccc2c1C(=O)c1c(O)c3c(c(O)c1C2=O)C[C@@](O)(C(=O)CO)C[C@@H]3O[C@H]1C[C@H](N)[C@H](O)[C@H](C)O1 [Doxorubicin, reference compound]	< 1 µM		< 1 µM		> 1 µM		> 1 µM		< 1 µM		< 1 µM		Inhibition rate (%) L-02 [1, 10]: 87.67%; Inhibition rate (%) MDA-MB-231 [2, 10]: 65.37%; Inhibition rate (%) ASPC-1 [3, 10]: 29.65%; Inhibition rate (%) NCI-H446/EP [4, 10]: 27.60%; Inhibition rate (%) NCI-H446 [5, 10]: 52.20%; Inhibition rate (%) K562 [6, 10]: 100.00%; Inhibition rate (%) ([6]; c 1 μM): 100.00%
C/C=C/C=C/C(=O)c1cc(C)c(C(=O)O)c(C)c1O [Compound 5, 4-Carboxylsorbicillin]	> 30 µM	13.89%	> 30 µM	-14.63%	> 30 µM	25.47%	> 30 µM	54.99%	16.9 µM	86.08%	15 µM	97.15%	Inhibition rate (%) [7]: 14.10%; Inhibition rate (%) [8]: 20.85%; Inhibition rate (%) ([5]; c 0.9375 μM): -8.00%; Inhibition rate (%) ([5]; c 1.875 μM): 0.43%; Inhibition rate (%) ([5]; c 3.75 μM): 2.66%; Inhibition rate (%) ([5]; c 15 μM): 51.20%; Inhibition rate (%) ([5]; c 30 μM): 74.28%; Inhibition rate (%) ([6]; c 0.9375 μM): 8.60%; Inhibition rate (%) ([6]; c 1.875 μM): 7.71%; Inhibition rate (%) ([6]; c 3.75 μM): 13.35%; Inhibition rate (%) ([6]; c 15 μM): 47.36%; Inhibition rate (%) ([6]; c 30 μM): 77.22%
Cc1c(O)cc(CCC(C)C(=O)O)c2ncsc12 (stereo not shown) [Compound 4, chrysobenzothiazole B]	> 30 µM	-1.81%	> 30 µM	6.32%	> 30 µM	8.56%	> 30 µM	7.13%	> 30 µM	6.55%	> 30 µM	37.63%	
Cc1cc(O)c(CC[C@H](C)C(=O)O)c2scnc12 [Compound 3b, Chrysobenzothiazole A]	> 30 µM	-5.91%	> 30 µM	-4.16%	> 30 µM	2.09%	> 30 µM	14.64%	> 30 µM	9.14%	> 30 µM	34.54%	
CC1C(CCc2nc3ccccc3c(=O)[nH]2)C2CC(=O)C1(C)C(=O)C2(C)O (stereo not shown) [Compound 1, Chrysoquinazolinone A]	> 30 µM	-0.42%	> 30 µM	-4.59%	> 30 µM	0.00%	> 30 µM	9.68%	> 30 µM	2.22%	> 30 µM	35.08%	
CC(c1nc2ccccc2c(=O)[nH]1)N1CCCC1=O (stereo not shown) [Compound 2, Chrysoquinazolinone B]	> 30 µM	0.28%	> 30 µM	5.80%	> 30 µM	7.93%	> 30 µM	12.47%	> 30 µM	4.70%	> 30 µM	33.57%	
